Patent US20240317755A1, “HETEROCYCLIC COMPOUND, AND INTERMEDIATE THEREOF, PREPARATION METHOD THEREFOR AND USE THEREOF” (WUHAN LL SCIENCE AND TECHNOLOGY DEVELOPMENT CO., LTD., priority 2021, published 2024)

What was measured:
[1] = Pharmacokinetic study in mice in vivo (gavage and tail vein injection); details: for AUC(0-t) / Cmax: dose 1 mg/kg
Source text: […] Mouse plasma was collected at a specific time point after administration, and the concentration of the compound in plasma was detected by LC-MS/MS (AB SCIEX Qtrap4500). PK parameters of each compound (WinNonlin V5.2, Pharsight) were statistically analyzed and calculated to reflect the pharmacokinetic properties of the compounds of the present disclosure in mice in vivo.

[2] = Liver microsome half-life assay, mouse; format: in vitro ADME; details: liver microsomes, 1 mg/mL liver microsomal protein, 37° C., read-out: Liver microsome T½ (min) Mouse
Experimental: (§1) The in vitro metabolic stability of the compounds of the present disclosure was determined using warm incubation method of liver microsomes in various species. A proper amount of test compound was added to the liver microsomal reaction system (1 mg/mL liver microsomal protein, 25 U/mL glucose-6-phosphate dehydrogenase, 1 mM NADP, 6 mM D-glucose 6-phosphate, 5 mM MgCl2), and the reaction was started by warm incubation in a water bath at 37° C., then 100 μL of the reaction mixture at each time point was added to a centrifuge tube containing 400 μL of internal standard working solution precooled at 0° C. (containing a solution of 200 ng/mL dexamethasone, diclofenac, tolbutamide, and labetalol in acetonitrile), then the reaction was terminated, centrifuged at 4° C. and 10,000 g for 10 min, and the supernatant was taken into LC-MS for analysis and detection to obtain in vitro metabolic half-lives of the test compounds in liver microsomes of various species.

[3] = PK study of male SD rats after single intragastric administration (5% solutol); format: in vivo; details: rat, plasma, single PO compound 1-6 100 mg/kg; for AUC(0-inf) / AUC(0-t) / Cmax / MRT last / half-life: male, SD, po, 100 mg/kg
Experimental: Effect Example 2: PK Study of Male SD Rats after Single Intragastric Administration of Compound (Using 5% Solutol as a Solvent)
To explore the time-plasma concentration curves of the compound in the plasma of male rats after single intragastric administration of compound 1 (125 mg/kg) and compound 1-6 (100 mg/kg) of the present disclosure and to obtain PK parameters (Cmax, Tmax, AUClast, AUCinf, T1/2, MRT, etc.) of the rats after single administration of compound 1 and compound 1-6 of the present disclosure.
(§2) Rats: SD rats, SPF grade, 3 males, weight range of 180 to 200 g (source: Beijing Vital River Laboratory Animal Technology Co., Ltd., certificate number: 110011201109106028); • feeding conditions: ordinary animal house feeding, free access to food and water, 3 animals/cage rearing, 12/12 hours light/dark cycle adjustment (7:00 am/7:00 pm), temperature of 23±1° C.
Dispensing: After accurately weighing the compounds in the PO group, 5% solutol of the required volume was added thereto first, vortexed and mixed evenly for 2 min, sonicated for 30 min, stirred for 2 hours until no visible particles were visible to the naked eye, and the drug was administered while stirring, and the middle layer of the drug solution was taken for drug administration.
as §2, with “220” for “180”, “300” for “200”, “SPF (Beijing) Biotechnology” for “Beijing Vital River Laboratory Animal Technology”, “110324200103216838);” for “110011201109106028);”
Dispensing: After accurately weighing compound 1-6 in the PO group, 5% solutol of the required volume was added first, vortexed and mixed evenly for 2 min, sonicated for 30 min, stirred for 3 hours until no visible particles were visible to the naked eye; • the drug solution was prepared and used immediately, and a sample of the drug solution must be retained for analysis, and two samples of 100 μL each of the upper, middle, and lower suspensions were taken and sent for analysis and testing on the same day.
The rats were randomly divided into 3 groups according to body weight, and the specific grouping and administration are as follows:
• 1. The animals in the PO group were fasted overnight with free access to water before administration, and the food was returned 4 hours after administration; • 2. time points for blood sampling: the time points for blood sampling in the PO group were 0.167, 0.5, 1, 2, 3, 4, 6, 9, 12, and 24 hours.
• 1. The animals in the PG group were fasted overnight with free access to water before administration, and the food was returned 4 hours after administration; • 2. time points for blood sampling: the time points for blood sampling in the PG group were 0.167, 0.5, 1, 2, 3, 4, 6, 9, 12, and 24 hours.
After administration to rats, blood was collected from the orbital venous plexus according to the sampling time points. About 0.2 to 0.3 mL of blood was collected at each time point and transferred to an anticoagulant EP tube (containing 4 μL of EDTA-K2, 375 mg/mL). The tube was gently inverted three times and stored in an ice box (not exceeding 30 minutes). After centrifugation at 3500×g for 10 minutes at 4° C., the supernatant was transferred to a labeled EP tube. Hemolysis was observed and recorded, and the sample was sent to bioassay for testing. If the sample could not be analyzed the same day, the sample was stored at −80° C. until further testing (be careful not to perform multiple freezing/thawing processes). […]

[4] = Liver microsome half-life assay, human; format: in vitro ADME; details: human, liver microsomes; 1 mg/mL liver microsomal protein, 37° C.; read-out: Liver microsome T½ (min) Human
Experimental: as §1

[5] = analyte compound 1-6, mean value

- AUC(0-t) ([1]; mouse, plasma, iv): 1860 ng·h/mL
- Cmax ([1]; mouse, plasma, iv): 1110 ng/mL
- bioavailability ([1]; mouse, plasma, po, 1 mg/kg, p.o. vs i.v.): 66.8%
- AUC(0-t) ([1]; mouse, plasma, po): 1240 ng·h/mL
- Cmax ([1]; mouse, plasma, po): 422 ng/mL
- time of peak plasma concentration ([1]; oral administration, 10 mg/kg, previous PK results): 1 h
- half-life [2]: 78 min
- AUC(0-inf) ([3]; analyte compound 1-6, animal 4): 14500 ng·h/mL
- AUC(0-t) ([3]; analyte compound 1-6, animal 4): 13500 ng·h/mL
- Cmax ([3]; analyte compound 1-6, animal 4): 1210 ng/mL
- MRT last ([3]; analyte compound 1-6, animal 4): 8.03 h
- half-life ([3]; analyte compound 1-6, animal 4): 5.95 h
- AUC(0-inf) ([3]; analyte compound 1-6, animal 5): 11500 ng·h/mL
- AUC(0-t) ([3]; analyte compound 1-6, animal 5): 11200 ng·h/mL
- Cmax ([3]; analyte compound 1-6, animal 5): 1290 ng/mL
- MRT last ([3]; analyte compound 1-6, animal 5): 6.38 h
- half-life ([3]; analyte compound 1-6, animal 5): 4.09 h
- AUC(0-inf) ([3]; analyte compound 1-6, animal 6): 27500 ng·h/mL
- AUC(0-t) ([3]; analyte compound 1-6, animal 6): 18200 ng·h/mL
- Cmax ([3]; analyte compound 1-6, animal 6): 1150 ng/mL
- MRT last ([3]; analyte compound 1-6, animal 6): 10 h
- half-life ([3]; analyte compound 1-6, animal 6): 14.5 h
- AUC(0-inf) [3, 5]: 17800 ng·h/mL
- AUC(0-t) [3, 5]: 14300 ng·h/mL
- Cmax [3, 5]: 1220 ng/mL
- MRT last [3, 5]: 8.15 h
- half-life [3, 5]: 5.02 h
- Tmax ([3]; analyte compound 1-6, animal 4): 4 h
- half-life [4]: 531 min
SMILES: O=C(c1ccc(F)cc1C(F)(F)F)c1cnc2n1CCN(c1cn[nH]c(=O)c1Cl)C2 [Compound 1-6, 4-chloro-5-(3-(4-fluoro-2-(trifluoromethyl)benzoyl)-5,6-dihydroimidazo[1,2-a]pyrazin-7(8H)-yl)pyridazin-3(2H)-one]
